Data reported in patent US10344025B2, “GLS1 inhibitors for treating disease” (Board of Regents, The University of Texas System, priority 2014, dated 2019).

Assays:
A549 cells = assay: Proliferation Assay (A549 viability, Cell Titer Fluor, 72 hours); type: cell-based; details: Homo sapiens, A549, 72 h
Procedure: A549 cells were routinely maintained in RPMI 1640 media (Gibco catalog number 11875-093) supplemented with 10% dialyzed fetal bovine serum using a humidified incubator (37° C., 5% CO2 and ambient O2). In preparation for the viability assay, cells were inoculated into 384-well black CulturPlates (Perkin Elmer) at a density of 1000 cells/well in a volume of 40 uL. Following a 24-hour incubation at 37° C., 5% CO2 and ambient O2, cells were treated with compound (10 uL) in a final DMSO concentration of 0.5% (v/v). The microplates were then incubated for 72 hours (37° C., 5% CO2 and ambient O2). Cell Titer Fluor (Promega) was subsequently added (10 uL of 6× reagent) and mixed for 15 minutes at room temperature. The plates were then incubated for 30 minutes (37° C., 5% CO2 and ambient O2) and fluorescence was subsequently read on the Perkin Elmer Envision plate reader. IC50 values were calculated using a four-parameter logistic curve fit.
Non-limiting examples include the following compounds and pharmaceutically acceptable salts thereof. […] “ND” indicates no data.

[1] = molecular target: purified recombinant human GAC (GLS1) (Homo sapiens (Human), UniProt O94925); assay: GLS1 Enzymatic Activity Assay (dual-coupled enzymatic assay, resorufin/Amplex UltraRed readout); type: biochemical;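 also: glutamate from GAC coupled via glutamate oxidase and peroxidase to resorufin, read as fluorescence (ex 530, em 590 nm) kinetically or at 20 min, four-parameter logistic IC50 fit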
purified recombinant human GAC (GLS1), sequence (O94925 other isoform, or with tags, fused parts or gaps): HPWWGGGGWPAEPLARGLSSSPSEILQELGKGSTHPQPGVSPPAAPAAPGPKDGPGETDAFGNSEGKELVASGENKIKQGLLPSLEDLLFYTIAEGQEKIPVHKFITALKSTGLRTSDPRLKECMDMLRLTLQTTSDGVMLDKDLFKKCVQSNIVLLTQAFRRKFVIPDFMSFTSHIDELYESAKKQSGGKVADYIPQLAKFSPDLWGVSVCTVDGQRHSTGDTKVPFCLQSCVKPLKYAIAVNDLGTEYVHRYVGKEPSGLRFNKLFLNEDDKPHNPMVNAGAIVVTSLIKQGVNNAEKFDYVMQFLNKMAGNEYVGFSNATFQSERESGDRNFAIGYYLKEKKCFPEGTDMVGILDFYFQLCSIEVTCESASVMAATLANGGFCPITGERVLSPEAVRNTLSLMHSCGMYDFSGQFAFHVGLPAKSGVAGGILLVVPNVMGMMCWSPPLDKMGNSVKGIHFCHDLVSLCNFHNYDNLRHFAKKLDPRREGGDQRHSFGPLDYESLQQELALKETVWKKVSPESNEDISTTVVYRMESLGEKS

Row | EC50 (A549 cells) [nM] | IC50 [1] [nM] | SMILES
1 | 500 to 5000 | 500 to 5000 | CC(C)(O)CNC(=O)c1nnc(CCCCn2cc(C(=O)NCc3cccc(OC(F)(F)F)c3)nn2)s1 [Example 48, N-(2-hydroxy-2-methylpropyl)-5-{4-[4-({[3-(trifluoromethoxy)phenyl]methyl}carbamoyl)-1H-1,2,3-triazol-1-yl]butyl}-1,3,4-thiadiazole-2-carboxamide]
2 | 500 to 5000 | 500 to 5000 | Cc1ccc(CNC(=O)c2cn(CCC(F)Cn3cc(NC(=O)CN4CC(F)(F)C4)nn3)nn2)cn1 (stereo not drawn) [Example 393, 1-(4-{4-[2-(3,3-difluoroazetidin-1-yl)acetamido]-1H-1,2,3-triazol-1-yl}-3-fluorobutyl)-N-[(6-methylpyridin-3-yl)methyl]-1H-1,2,3-triazole-4-carboxamide]
3 | 100 to 500 | < 100 | CNC(=O)c1cn(CCCCc2ccc(NC(=O)Cc3cccc(C4=CCOCC4)c3)nn2)nn1 [Example 199, 1-(4-(6-(2-(3-(3,6-dihydro-2H-pyran-4-yl)phenyl)acetamido)pyridazin-3-yl)butyl)-N-methyl-1H-1,2,3-triazole-4-carboxamide]
4 | < 100 | < 100 | COCCNC(=O)c1nnc(CCCCc2ccc(NC(=O)Cc3cccc(OC(F)(F)F)c3)nn2)s1 [Example 6, N-(2-methoxyethyl)-5-(4-(6-(2-(3-(trifluoromethoxy)phenyl)acetamido)pyridazin-3-yl)butyl)-1,3,4-thiadiazole-2-carboxamide]
5 | < 100 | < 100 | O=C(Cc1cc(OC(F)(F)F)ccc1F)Nc1nnc(CCC(F)Cn2cc(C(=O)NCc3cccnc3)nn2)s1 (stereo not drawn) [Example 218, 1-(2-fluoro-4-(5-(2-(2-fluoro-5-(trifluoromethoxy)phenyl)acetamido)-1,3,4-thiadiazol-2-yl)butyl)-N-(pyridin-3-ylmethyl)-1H-1,2,3-triazole-4-carboxamide]
6 | < 100 | < 100 | O=C(CN1CCC(F)(F)CC1)Nc1cn(CCCCn2cc(C(=O)NCc3cc(OC(F)(F)F)ccc3F)nn2)nn1 [Example 360, 1-(4-{4-[2-(4,4-difluoropiperidin-1-yl)acetamido]-1H-1,2,3-triazol-1-yl}butyl)-N-{[2-fluoro-5-(trifluoromethoxy)phenyl]methyl}-1H-1,2,3-triazole-4-carboxamide]
7 | < 100 | < 100 | O=C(Cc1cccc(OC(F)(F)F)c1)Nc1cn(CC(F)CCn2cc(C(=O)NCc3cc(C(F)(F)F)ccn3)nn2)nn1 (stereo not drawn) [Example 394]
8 | < 100 | < 100 | CC(C)CNC(=O)c1cn(CCCCc2ccc(NC(=O)Cc3ccccc3)nn2)nn1 [Example 24, N-(2-methylpropyl)-1-{4-[6-(2-phenylacetamido)pyridazin-3-yl]butyl}-1H-1,2,3-triazole-4-carboxamide]
9 | < 100 | < 100 | O=C(NCc1ccc(C(F)(F)F)cn1)c1cn(CCC(F)Cn2cc(C(=O)NCc3cc(C(F)(F)F)ccn3)nn2)nn1 (stereo not drawn) [Example 156, 1-{2-fluoro-4-[4-({[5-(trifluoromethyl)pyridin-2-yl]methyl}carbamoyl)-1H-1,2,3-triazol-1-yl]butyl}-N-{[4-(trifluoromethyl)pyridin-2-yl]methyl}-1H-1,2,3-triazole-4-carboxamide]
10 | < 100 | < 100 | O=C(Cc1cccc(OC(F)(F)F)c1)Nc1cn(CC(F)CCn2cc(C(=O)NCc3ccc(C(F)(F)F)cn3)nn2)nn1 (stereo not drawn) [Example 486, 1-[3-fluoro-4-(4-{2-[3-(trifluoromethoxy)phenyl]acetamido}-1H-1,2,3-triazol-1-yl)butyl]-N-{[5-(trifluoromethyl)pyridin-2-yl]methyl}-1H-1,2,3-triazole-4-carboxamide]
11 | 500 to 5000 | < 100 | CNC(=O)c1cn(CCCCc2ccc(NC(=O)Cc3cccc(S(C)(=O)=O)c3)nn2)nn1 [Example 543, 1-(4-{6-[2-(3-methanesulfonylphenyl)acetamido]pyridazin-3-yl}butyl)-N-methyl-1H-1,2,3-triazole-4-carboxamide]
12 | > 5000 | 500 to 5000 | Cc1ccc(CC(=O)Nc2cn(CCCCn3cc(C(=O)NCC4CC4)nn3)nn2)cn1 [Example 319, N-(cyclopropylmethyl)-1-(4-{4-[2-(6-methylpyridin-3-yl)acetamido]-1H-1,2,3-triazol-1-yl}butyl)-1H-1,2,3-triazole-4-carboxamide]
13 | < 100 | < 100 | O=C(NCc1cccc(OC(F)(F)F)c1)c1cn(CCC(F)Cn2cc(C(=O)NCc3cc(C4CC4)ccn3)nn2)nn1 (stereo not drawn) [Example 147]
14 | < 100 | < 100 | Cc1ccc(CNC(=O)c2cn(CC(F)CCc3nnc(C(=O)NCc4cc(OC(F)(F)F)ccc4F)s3)nn2)cn1 (stereo not drawn) [Example 447, 5-[3-fluoro-4-(4-{[(6-methylpyridin-3-yl)methyl]carbamoyl}-1H-1,2,3-triazol-1-yl)butyl]-N-{[2-fluoro-5-(trifluoromethoxy)phenyl]methyl}-1,3,4-thiadiazole-2-carboxamide]
15 | < 100 | < 100 | O=C(Cc1cccc(OC(F)(F)F)c1)Nc1cn(CCCCn2cc(C(=O)NCc3cc(C(F)(F)F)ccn3)nn2)nn1 [Example 414, 1-[4-(4-{2-[3-(trifluoromethoxy)phenyl]acetamido}-1H-1,2,3-triazol-1-yl)butyl]-N-{[4-(trifluoromethyl)pyridin-2-yl]methyl}-1H-1,2,3-triazole-4-carboxamide]
16 | 100 to 500 | < 100 | O=C(CN1CC(F)(F)C1)Nc1cn(CCCCn2cc(C(=O)NCc3cccc(OC(F)(F)F)c3)nn2)nn1 [Example 330, 1-(4-{4-[2-(3,3-difluoroazetidin-1-yl)acetamido]-1H-1,2,3-triazol-1-yl}butyl)-N-{[3-(trifluoromethoxy)phenyl]methyl}-1H-1,2,3-triazole-4-carboxamide]
17 | 100 to 500 | – | O=C(NCc1ccccc1)c1cn(CCCCc2nnc(C(=O)NCc3cccc(OC(F)(F)F)c3)s2)nn1 [Example 39, 5-{4-[4-(benzylcarbamoyl)-1H-1,2,3-triazol-1-yl]butyl}-N-{[3-(trifluoromethoxy)phenyl]methyl}-1,3,4-thiadiazole-2-carboxamide]
18 | < 100 | – | CNC(=O)c1cn(CC(F)CCc2ccc(NC(=O)Cc3cc(C(F)(F)F)cc(C)n3)nn2)nn1 (stereo not drawn) [Example 264, 1-(2-fluoro-4-(6-(2-(6-methyl-4-(trifluoromethyl)pyridin-2-yl)acetamido)pyridazin-3-yl)butyl)-N-methyl-1H-1,2,3-triazole-4-carboxamide]
19 | < 100 | – | O=C(Cc1ccccn1)Nc1ccc(CCCCn2cc(C(=O)NCc3cccc(OC(F)(F)F)c3)nn2)nn1 [Example 169, 1-(4-{6-[2-(pyridin-2-yl)acetamido]pyridazin-3-yl}butyl)-N-{[3-(trifluoromethoxy)phenyl]methyl}-1H-1,2,3-triazole-4-carboxamide]
20 | < 100 | – | COc1cncc(CNC(=O)c2cn(CC(F)CCc3nnc(NC(=O)Cc4cccc(OC(F)(F)F)c4)s3)nn2)c1 (stereo not drawn) [Example 222, 1-(2-fluoro-4-(5-(2-(3-(trifluoromethoxy)phenyl)acetamido)-1,3,4-thiadiazol-2-yl)butyl)-N-((5-methoxypyridin-3-yl)methyl)-1H-1,2,3-triazole-4-carboxamide]
21 | < 100 | – | CNC(=O)c1cn(C[C@H](F)CCc2ccc(NC(=O)Cc3cc(C(F)(F)F)cc(C)n3)nn2)nn1 [Example 268, (R)-1-(2-fluoro-4-(6-(2-(6-methyl-4-(trifluoromethyl)pyridin-2-yl)acetamido)pyridazin-3-yl)butyl)-N-methyl-1H-1,2,3-triazole-4-carboxamide]
22 | < 100 | – | CNC(=O)c1cn(C[C@@H](F)CCc2ccc(NC(=O)Cc3cc(C(F)(F)F)ccn3)nn2)nn1 [Example 260, (S)-1-(2-fluoro-4-(6-(2-(4-(trifluoromethyl)pyridin-2-yl)acetamido)pyridazin-3-yl)butyl)-N-methyl-1H-1,2,3-triazole-4-carboxamide]
23 | 500 to 5000 | – | CC(C)(O)CNC(=O)c1cn(CCCCc2ccc(NC(=O)Cc3cccc(OC(F)(F)F)c3)nn2)nn1 [Example 549, N-(2-hydroxy-2-methylpropyl)-1-[4-(6-{2-[3-(trifluoromethoxy)phenyl]acetamido}pyridazin-3-yl)butyl]-1H-1,2,3-triazole-4-carboxamide]
24 | 500 to 5000 | – | CNC(=O)c1cn(CCCCc2ccc(NC(=O)Cc3cccnc3)nn2)nn1 [Example 541, N-methyl-1-(4-{6-[2-(pyridin-3-yl)acetamido]pyridazin-3-yl}butyl)-1H-1,2,3-triazole-4-carboxamide]

Row | SMILES | EC50 (A549 cells) [nM] | IC50 [1] [nM]
25 | CNC(=O)c1cn(CC(F)CCc2ccc(NC(=O)Cc3cncc(OC4CC(F)(F)C4)c3)nn2)nn1 (stereo not drawn) [Example 245, 1-(4-(6-(2-(5-(3,3-difluorocyclobutoxy)pyridin-3-yl)acetamido)pyridazin-3-yl)-2-fluorobutyl)-N-methyl-1H-1,2,3-triazole-4-carboxamide] | < 100 | < 100
26 | CNC(=O)c1cn(C[C@H](F)CCc2nnc(C(=O)NCc3cc(C(F)(F)F)ccn3)s2)nn1 (single isomer, unassigned) [Example 221] | 100 to 500 | 100 to 500
27 | CNC(=O)c1cn(CC(F)CCc2ccc(NC(=O)Cc3cc(OC4CC(F)(F)C4)ccn3)nn2)nn1 (stereo not drawn) [Example 252, 1-(4-(6-(2-(4-(3,3-difluorocyclobutoxy)pyridin-2-yl)acetamido)pyridazin-3-yl)-2-fluorobutyl)-N-methyl-1H-1,2,3-triazole-4-carboxamide] | < 100 | –
